{
  "source": "patent US20090203892A1",
  "about": "“Retrotransposon Inhibition in Therapy” (ISTITUTO SUPERIORE DI SANITA, priority 2004, published 2009)",
  "key": {"A-375 melanoma": {"test_system": "A-375 melanoma", "assay": "Cell growth under prolonged exposure to RT inhibitors", "format": "cell-based, Human", "details": "for reversibility of growth inhibition: after removal of RT inhibitors, within one or two 96 h-cycles; for cell growth: nevirapine 350 μM, efavirenz 15 μM, five 96 h-cycles", "experimental": "(§1) Human A-375 melanoma (ATCC-CRL-1619), TVM-A12 primary melanoma-derived (20), HT29 adenocarcinoma (ATCC HTB-38), H69 small cell lung carcinoma (SCLC) (ATCC HTB119), and PC3 prostate carcinoma (ATCC CRL-1435) cell lines were seeded in six-well plates at a density of 10^4 to 5×10^4 cells/well and cultured in DMEM or RPMI1640 medium with 10% fetal bovine serum. Nevirapine and Efavirenz were purified from commercially available Viramune (Boehringer-Ingelheim) and Sustiva (Bristol-Myers Squibb) as described (18). The drugs were made 350 and 15 μM in dimethyl sulfoxide (DMSO, Sigma-Aldrich), respectively, and added to cells 5 h after seeding; the same DMSO volume (0.2% final concentration) was added to controls. Fresh RT inhibitor-containing medium was changed every 48 h. Cells were harvested every 96 h, counted in a Burker chamber (two countings/sample) and replated at the same density."}, "PC3 prostate carcinoma": {"test_system": "PC3 prostate carcinoma", "assay": "Cell growth under prolonged exposure to RT inhibitors", "format": "cell-based, Human", "details": "for reversibility of growth inhibition: after removal of RT inhibitors, within one or two 96 h-cycles; for cell growth: nevirapine 350 μM, efavirenz 15 μM, five 96 h-cycles", "experimental": "as §1"}, "[1]": {"test_system": "TVM-A12 primary melanoma-derived cell line", "assay": "Cell growth under prolonged exposure to RT inhibitors", "format": "cell-based, Human", "details": "for reversibility of growth inhibition: after removal of RT inhibitors, within one or two 96 h-cycles; for cell growth: nevirapine 350 μM, efavirenz 15 μM, five 96 h-cycles", "experimental": "as §1"}, "A-375 melanoma cells": {"test_system": "A-375 melanoma cells", "assay": "Morphological differentiation (phase contrast, SEM, confocal microscopy)", "format": "cell-based, Human", "details": "compared to DMSO-treated controls", "experimental": "(§2) A-375 and TVM-A12 cells were fixed with 4% para-formaldehyde for 10 min and permeabilized in 0.2% Triton-X 100 in PBS for 5 min. […] Confocal sections were taken at 0.5-1 μm intervals. A-375 and TVM-A12 cells were fixed in 2.5% glutaraldehyde in 0.1 M Millonig's phosphate buffer. After washing, cells were post-fixed with 1% OsO4 (1 h, 4° C.) in MPB and dehydrated using increasing acetone concentrations. Samples were critical-point dried using liquid CO2 and sputter-coated with gold before examination on a Stereoscan 240 scanning electron microscope (Cambridge Instr., Cambridge, UK)."}, "primary TVM-A12 cells": {"test_system": "primary TVM-A12 cells", "assay": "Morphological differentiation (phase contrast, SEM, confocal microscopy)", "format": "cell-based, Human", "details": "compared to untreated cells", "experimental": "as §2"}, "endogenous RT": {"test_system": "endogenous RT", "details": "non-infected cells in vitro (ref. 19); cited from earlier work"}, "[2]": {"test_system": "E-cadherin, c-myc, bcl-2 and cyclin D1 genes in A-375 melanoma cells", "assay": "Gene expression by semiquantitative RT-PCR in RT-inhibited cultures", "format": "cell-based, Human", "details": "four cycles, compared to controls", "experimental": "Each oligo pair was used in sequential amplification series with increasing numbers (25 to 40) of cycles. PCR products were electrophoresed, transferred to membranes and hybridized for 16 h at 42 C.° with [^32P]γ-ATP end-labelled internal oligonucleotides. The intensity of the amplification signal was measured by densitometry in at least three independent experiments for each gene. [table] […] This was investigated in semiquantitative RT-PCR analysis of cultures treated with DMSO only, or nevirapine or efavirenz for four cycles. In A-375 melanoma cells, we focussed on a set of four genes: the E-cadherin gene, involved in cell-cell adhesion and expressed in differentiated but not in tumor cells (24); and the c-myc, bcl-2 (25) and cyclin D1 (26) genes, which are directly implicated in melanoma cell proliferation and tumor growth."}, "A-375 melanoma xenograft": {"test_system": "A-375 melanoma xenograft", "assay": "Human tumor xenograft growth in athymic nude mice", "format": "in vivo", "details": "20 mg/kg s.c. daily five days a week, start one day or one week after inoculation; vs untreated", "experimental": "(§3) Controls were injected with 50% DMSO."}, "[3]": {"test_system": "H69 small cell lung carcinoma xenograft", "assay": "Human tumor xenograft growth in athymic nude mice", "format": "in vivo", "details": "20 mg/kg s.c. daily five days a week, start one day or one week after inoculation; vs untreated", "experimental": "as §3"}, "HT29 colon xenograft": {"test_system": "HT29 colon xenograft", "assay": "Human tumor xenograft growth in athymic nude mice", "format": "in vivo", "experimental": "as §3"}, "PC3 xenograft": {"test_system": "PC3 xenograft", "assay": "Human tumor xenograft growth in athymic nude mice", "format": "in vivo", "experimental": "as §3"}, "[4]": {"experimental": "Five-week old athymic nude mice (Harlan, Italy), kept in accordance with the European Union guidelines, were inoculated sub-cutaneously with A-375 melanoma (4×10^6), H-69 (10^7), PC3 (2×10^6) and HT-29 (10^6) cells in 100 μl PBS. […] Controls were injected with 50% DMSO. Treatment started one day or one week after tumor implant, and, in some experiments, was discontinued after 14 days. Tumor growth was monitored every other day by caliper measurements; volumes were calculated using the formula: […]\nCells were inoculated subcutaneously in the limb of athymic nude mice."}, "[5]": {"assay": "Preliminary in vivo assays of RT inhibitors"}, "[6]": {"test_system": "PC3 prostate cancer cells", "assay": "Tumorigenicity of efavirenz-pretreated PC3 cells inoculated in nude mice", "format": "in vivo", "experimental": "as §3\nWe also investigated whether pretreatment of transformed cells with efavirenz would modify the tumorigenic potential of derived xenografts. PC3 prostate cancer cells were cultured with 20 μM efavirenz for two 96 h-cycles, a time that was sufficient for induction of the PSA and AR genes (FIG. 3B), and subsequently inoculated in nude mice.\nUntreated cells were inoculated in parallel batches of animals. Efavirenz-pretreated, or untreated, PC3 cell xenografts were then either continuously treated with efavirenz in vivo or were left untreated. […] As summarized in FIG. 6 B, efavirenz-pretreated PC3 cells developed slowly-growing xenografts in 65% of the inoculated animals, compared to 100% using untreated cells. […] Thus, efavirenz attenuates the tumorigenic potential of transformed cells."}, "[7]": {"details": "20 mg/kg s.c. daily five days a week, start one day or one week after inoculation, vs untreated"}, "[8]": {"details": "treated from day one, treatment discontinuation after day 15"}},
  "data": [
    {"compound": "Cc1ccnc2c1NC(=O)c1cccnc1N2C1CC1", "note": "[nevirapine, Nevirapine]", "values": [
      {"measurement": "reversibility of growth inhibition", "setting": "A-375 melanoma", "result": "reversible"},
      {"measurement": "cell growth", "setting": "A-375 melanoma", "result": "effectively reduce cell growth"},
      {"measurement": "reversibility of growth inhibition", "setting": "PC3 prostate carcinoma", "result": "reversible"},
      {"measurement": "cell growth", "setting": "PC3 prostate carcinoma", "result": "effectively reduce cell growth"},
      {"measurement": "reversibility of growth inhibition", "setting": "[1]", "result": "reversible"},
      {"measurement": "cell growth", "setting": "[1]", "result": "effectively reduce cell growth"},
      {"measurement": "morphological differentiation", "setting": "A-375 melanoma cells", "result": "became evident within four-five days"},
      {"measurement": "morphological differentiation", "setting": "primary TVM-A12 cells", "result": "formed instead typical branched dendrites"},
      {"measurement": "inhibition of the enzymatic activity of the endogenous RT", "setting": "endogenous RT", "result": "inhibit the enzymatic activity of the endogenous RT"}
    ]},
    {"compound": "O=C1Nc2ccc(Cl)cc2[C@@](C#CC2CC2)(C(F)(F)F)O1", "note": "[efavirenz, Efavirenz]", "values": [
      {"measurement": "reversibility of growth inhibition", "setting": "A-375 melanoma", "result": "reversible"},
      {"measurement": "cell growth", "setting": "A-375 melanoma", "result": "effectively reduce cell growth"},
      {"measurement": "reversibility of growth inhibition", "setting": "PC3 prostate carcinoma", "result": "reversible"},
      {"measurement": "cell growth", "setting": "PC3 prostate carcinoma", "result": "effectively reduce cell growth"},
      {"measurement": "reversibility of growth inhibition", "setting": "[1]", "result": "reversible"},
      {"measurement": "cell growth", "setting": "[1]", "result": "effectively reduce cell growth"},
      {"measurement": "morphological differentiation", "setting": "A-375 melanoma cells", "result": "became evident within four-five days"},
      {"measurement": "expression of the cyclin D1 gene", "setting": "[2]", "result": "failed to down-regulate cyclin D1 expression"},
      {"measurement": "tumor growth", "setting": "A-375 melanoma xenograft", "result": "markedly reduced"},
      {"measurement": "tumor growth", "setting": "[3]", "result": "markedly reduced"},
      {"measurement": "tumor growth", "setting": "HT29 colon xenograft; [7]", "result": "markedly reduced"},
      {"measurement": "reversibility of inhibition of tumor growth", "setting": "HT29 colon xenograft; [8]", "result": "reversible in vivo"},
      {"measurement": "tumor growth", "setting": "PC3 xenograft; [7]", "result": "markedly reduced"},
      {"measurement": "reversibility of inhibition of tumor growth", "setting": "PC3 xenograft; [8]", "result": "reversible in vivo"},
      {"measurement": "animal death or signs of toxicity", "setting": "[4]; 4 to 40 mg/kg, all animal groups", "result": "no animal death or explicit signs of toxicity in any of the groups"},
      {"measurement": "animals with significant decrease of body weight", "setting": "[4]; group treated with 40 mg/kg", "result": "more than 60 % of animals"},
      {"measurement": "in vivo effectiveness relative to nevirapine", "setting": "[5]", "result": "higher in vivo effectiveness than nevirapine"},
      {"measurement": "inoculated animals developing xenografts", "setting": "[6]; cells pretreated with 20 μM efavirenz for two 96 h-cycles, no treatment in vivo, 100% using untreated cells, 30 days", "result": "65 % of the inoculated animals"},
      {"measurement": "xenograft growth", "setting": "[6]; efavirenz-pretreated cells, no treatment in vivo", "result": "xenografts grew more slowly"},
      {"measurement": "xenograft growth", "setting": "[6]; pretreated cells and further treated with efavirenz in vivo", "result": "the growth curve was flat"},
      {"measurement": "animals developing a tumor", "setting": "[6]; pretreated cells and further treated with efavirenz in vivo, 30 days", "result": "40 % of the animals"},
      {"measurement": "inhibition of the enzymatic activity of the endogenous RT", "setting": "endogenous RT", "result": "inhibit the enzymatic activity of the endogenous RT"}
    ]}
  ]
}
